These results are taken from ChEMBL document CHEMBL5226377, “Totopotensamide Congeners from a Halogenase-Inactivated Mutant” (J Nat Prod, 2023).

Some results are limits rather than exact numbers.

Type in all cases: functional, cell-based
The test system of one test is A549. The test can be described thus: Cytotoxicity against human A549 cells assessed as inhibition of cell growth incubated for 24 hrs by MTT assay. As to conditions: A549, 24 h. Background: Tetrazolium dyes change colour on reduction, which living cells bring about.
The subject of a further test is PANC-1. The test can be described thus: Cytotoxicity against human PANC-1 cells assessed as inhibition of cell growth incubated for 24 hrs by MTT assay. The following applies: PANC-1, 24 h.
Another test has as its system Calu-3. The test can be described thus: Cytotoxicity against human Calu-3 cells assessed as inhibition of cell growth incubated for 24 hrs by MTT assay. As to conditions: Calu-3, 24 h.
Another test deals with BXPC-3. The test can be described thus: Cytotoxicity against human BXPC-3 cells assessed as inhibition of cell growth incubated for 24 hrs by MTT assay. As to conditions: BXPC-3, 24 h.

In the case of `CC[C@H](C)[C@@H]1NC(=O)[C@H](c2cc(O)c(C)c(O)c2)NC(=O)[C@H](NC(=O)[C@H](C)NC(=O)[C@H](NC(=O)CC(=O)[C@@H](C)C[C@@H](C)C[C@@H](C)[C@H](O)[C@@H](C)C(=O)[C@@H](C)O)[C@@H](C)O)[C@@H](C)NC(=O)CNC1=O`, the IC50 is 9.2 µM in the test with A549, 6.5 µM in the test with PANC-1, 18.8 µM with Calu-3 and 2.3 µM in the test with BXPC-3.
For the compound `CC[C@H](C)[C@@H]1NC(=O)[C@H](c2cc(O)c(C)c(O)c2)NC(=O)[C@H](NC(=O)[C@H](C)NC(=O)[C@H](NC(=O)CC(=O)[C@@H](C)C[C@@H](C)C[C@@H](C)[C@H](O)[C@@H](CO)[C@@H](O)CC)[C@@H](C)O)[C@@H](C)NC(=O)CNC1=O`, the IC50 with A549 stood at 10.4 µM; with PANC-1, 6.6 µM; in the test with Calu-3, 15.3 µM; in the test with BXPC-3, 8.2 µM.
Consider `CC[C@H](O[C@@H]1O[C@H](CO)[C@@H](OC)[C@H](O)[C@H]1O)[C@H](C)[C@@H](O)[C@H](C)C[C@H](C)C[C@H](C)C(=O)CC(=O)N[C@@H](C(=O)N[C@@H](C)C(=O)N[C@H]1C(=O)N[C@@H](c2cc(O)c(C)c(O)c2)C(=O)N[C@@H]([C@@H](C)CC)C(=O)NCC(=O)N[C@@H]1C)[C@@H](C)O`, for which the IC50 in the test with A549 is 3.7 µM; in the test with PANC-1 it was 3.9 µM; with Calu-3 it was 12.2 µM; with BXPC-3, 3.9 µM.
Turning to `CCC[C@H](C)[C@@H](O)[C@H](C)C[C@H](C)C[C@H](C)C(=O)CC(=O)N[C@@H](C(=O)N[C@@H](C)C(=O)N[C@H]1C(=O)N[C@@H](c2cc(O)c(C)c(O)c2)C(=O)N[C@@H]([C@@H](C)CC)C(=O)NCC(=O)N[C@@H]1C)[C@@H](C)O`, the IC50 in the test on A549, with PANC-1, in the test with Calu-3 and in the test on BXPC-3 was over 100 µM in each case.
On to `CCC(=O)[C@H](C)[C@@H](O)[C@H](C)C[C@H](C)C[C@H](C)C(=O)CC(=O)N[C@@H](C(=O)N[C@@H](C)C(=O)N[C@H]1C(=O)N[C@@H](c2cc(O)c(C)c(O)c2)C(=O)N[C@@H]([C@@H](C)CC)C(=O)NCC(=O)N[C@@H]1C)[C@@H](C)O`, for which the IC50 amounted to 9.7 µM in the test with A549, 9.5 µM in the test on PANC-1, 14.6 µM with Calu-3 and 7.2 µM in the test with BXPC-3.
Regarding `CC[C@H](C)[C@@H]1NC(=O)[C@H](c2cc(O)c(C)c(O)c2Cl)NC(=O)[C@H](NC(=O)[C@H](C)NC(=O)[C@H](NC(=O)CC(=O)[C@@H](C)C[C@@H](C)C[C@@H](C)[C@H](O)[C@@H](C)[C@@H](O[C@@H]2O[C@H](CO)[C@@H](OC)[C@H](O)[C@H]2O)[C@@H](C)O)[C@@H](C)O)[C@@H](C)NC(=O)CNC1=O`, the IC50 with A549, in the test with PANC-1, with Calu-3 and in the test with BXPC-3 was over 100 µM each time.
`CC[C@H](C)[C@@H]1NC(=O)[C@H](c2cc(O)c(C)c(O)c2)NC(=O)[C@H](NC(=O)[C@H](C)NC(=O)[C@H](NC(=O)CC(=O)[C@@H](C)C[C@@H](C)C[C@@H](C)[C@H](O)[C@@H](C)[C@@H](O[C@@H]2O[C@H](CO)[C@@H](OC)[C@H](O)[C@H]2O)[C@@H](C)O)[C@@H](C)O)[C@@H](C)NC(=O)CNC1=O`: the IC50 in the test with A549, in the test with PANC-1, in the test on Calu-3 and in the test on BXPC-3 was over 100 µM each time.
Regarding `CC[C@H](C)[C@@H]1NC(=O)[C@H](c2cc(O)c(C)c(O)c2)NC(=O)[C@H](NC(=O)[C@H](C)NC(=O)[C@H](NC(=O)CC(=O)[C@@H](C)C[C@@H](C)C[C@@H](C)[C@H](O)[C@@H](C)[C@@H](O)CC)[C@@H](C)O)[C@@H](C)NC(=O)CNC1=O`, the IC50 was 58.8 µM with A549, 42.1 µM in the test on PANC-1, over 100 µM with Calu-3 and 30.4 µM in the test with BXPC-3.

One may read the IC50 as the midpoint of a concentration-inhibition curve.
